From patent US20020015943A1, “Assays, methods and means relating to the modulation of levels of nuclear beta-catenin” (priority 2000, published 2002)
“Also recorded” adds a separate entry of the source.

Assays:
[1] = system: nuclear export receptor CRM1; experiment: Subcellular distribution of GFP-tagged APC constructs in transfected COS cells with or without LMB; assay type: cell-based, monkey
Description: All constructs were inserted into pEGFP-C2 (Clontech), producing N-terminally tagged GFP fusions. Each construct (except HC and HCala, see below) also contains a triple hemagglutinin (HA) tag inserted between GFP and APC coding sequence. In coreNES, the following NES-encoding sequences were inserted between the HA tag and the ARDcore (first of a pair human, second Drosophila, bold NES residues were substituted to alanine in coreNESala; in coreNEScon, underlined conserved non-NES residues were substituted by alanine): 203, […], […]; 20R4, […], […]; 20R7, […]. coreNESmin from Drosophila 20R4 contains […] (bold residues substituted by alanine in the mutant version). […] For the complementation assays in SW480 cells, a central fragment from human APC (codons 1379-2080) was N-terminally tagged with GFP (HC, see above). The above described alanine substitutions of 20R-linked NESs were introduced into HC, and into GFP-E-APC, using the Quik-Change Site-Directed Mutagenesis Kit (Stratagene), HCala1 and HCala2 are partial mutants retaining one and two NESs, respectively (see text) All constructs were verified by sequencing.
Monkey COS cells were grown in DMEM medium (supplemented with 10% fetal calf serum), and transfected with FuGENE™ (Morin, P. J. et al. Science 275, 1787-1790 (1997)) Transfection Reagent (Roche). SW480 and HCT116 cells were grown in Leibovitz's L15 medium (with 10% fetal calf serum), and transfected with Lipofectamine (Life Technologies Inc.). 0.4 or […] DNA was used per transfection of COS or SW480 cells (in 35 mm culture wells), respectively. Transfected cells were harvested for analysis after 24-48 hours. For staining, cells were either fixed with chilled methanol for 10 min. at −20° C. or fixed with 4% paraformaldehyde (freshly prepared, in phosphate buffered saline) for 30 min. Cells were then permeabilised with 0.1% Triton X-100 and blocked with bovine serum albumin for 15 min. each, and subsequently incubated at room temperature with primary and secondary antibody for 60 and 30 min, respectively. COS cells were treated with LMB (50 ng/ml)) for 1-2 hours 24 hours after transfection, SW480 cells for 2 hours 48 hours after transfection.
(§1) Qualitative analysis was thus backed up by quantitative evaluation of 10-20 randomly chosen fields in which each individual healthy cell was scored. Ratios of nuclear to cytoplasmic fluorescence levels were determined.

[2] = biological target: T1, nuclear export receptor CRM1 (Drosophila melanogaster, UniProt Q9TVM2); experiment: Endogenous E-APC localisation in LMB-treated permeabilised Drosophila embryos; assay type: cell-based; settings: 80 ng/ml LMB 60 min
T1 construct: 0-6 hours old embryos were permeabilised in octane; from tissue; host or cells: octane-permeabilised Drosophila embryos, 0-6 hours old
T1 sequence (Q9TVM2 whole entry): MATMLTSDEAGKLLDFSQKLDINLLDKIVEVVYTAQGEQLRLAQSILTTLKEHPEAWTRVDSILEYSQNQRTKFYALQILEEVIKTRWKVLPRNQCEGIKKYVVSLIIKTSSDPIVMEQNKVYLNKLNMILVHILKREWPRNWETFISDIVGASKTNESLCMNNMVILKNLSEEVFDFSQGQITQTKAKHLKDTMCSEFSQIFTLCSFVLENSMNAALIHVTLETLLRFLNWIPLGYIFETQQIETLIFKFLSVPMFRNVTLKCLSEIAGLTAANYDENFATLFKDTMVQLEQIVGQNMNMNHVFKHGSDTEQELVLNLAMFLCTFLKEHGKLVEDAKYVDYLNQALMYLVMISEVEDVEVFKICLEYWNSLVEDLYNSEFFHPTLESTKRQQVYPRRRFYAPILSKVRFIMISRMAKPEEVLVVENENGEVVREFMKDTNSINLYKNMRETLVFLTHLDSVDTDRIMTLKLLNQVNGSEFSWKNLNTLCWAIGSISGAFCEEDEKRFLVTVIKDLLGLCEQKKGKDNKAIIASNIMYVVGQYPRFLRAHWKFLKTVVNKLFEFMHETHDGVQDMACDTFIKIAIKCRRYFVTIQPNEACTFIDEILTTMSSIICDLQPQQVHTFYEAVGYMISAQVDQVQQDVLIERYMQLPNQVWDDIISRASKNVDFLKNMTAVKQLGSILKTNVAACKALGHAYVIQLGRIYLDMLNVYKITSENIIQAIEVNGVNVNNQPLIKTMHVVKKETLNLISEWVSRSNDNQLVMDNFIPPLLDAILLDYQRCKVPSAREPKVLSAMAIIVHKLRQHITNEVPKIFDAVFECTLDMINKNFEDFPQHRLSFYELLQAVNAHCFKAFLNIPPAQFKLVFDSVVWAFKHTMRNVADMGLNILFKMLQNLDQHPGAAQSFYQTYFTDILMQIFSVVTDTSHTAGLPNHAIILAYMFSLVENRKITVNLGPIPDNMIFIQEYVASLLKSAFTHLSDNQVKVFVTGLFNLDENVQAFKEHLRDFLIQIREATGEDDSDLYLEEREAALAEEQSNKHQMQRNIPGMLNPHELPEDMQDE
Experimental: Drosophila embryos were fixed and stained as described (Yu, X. et al. Nature Cell Biol 3, 144-151 (1999)). For drug treatments, 0-6 hours old embryos were permeabilised in octane (Lantz, V. A. et al. Mech Dev 85, 111-122 (1999)) and subsequently incubated for 60 min. with 80 ng/ml LMB. Controls were octane-permeabilised and incubated in solvent alone (<1% ethanol).
The following antibodies were used: rabbit anti-E-APC (1:10′000) (Yu, X. et al. Nature Cell Biol 3, 144-151 (1999), rabbit anti-APC (1:700) (Näthke, I. S. et al. J Cell Biol 134, 165-179 (1996)), mouse anti-lamin (1:150), mouse anti-β-catenin (1:500; Transduction Laboratories), Alexa Red and Green (1:500; Molecular Probes). images were collected on an MRC 1024 confocal microscope.

[3] = system: nuclear β-catenin in SW480 cells; experiment: Complementation assay in transfected SW480 cells, immunofluorescence of APC construct and β-catenin; assay type: cell-based
Description: All constructs were inserted into pEGFP-C2 (Clontech), producing N-terminally tagged GFP fusions. Each construct (except HC and HCala, see below) also contains a triple hemagglutinin (HA) tag inserted between GFP and APC coding sequence. In coreNES, the following NES-encoding sequences were inserted between the HA tag and the ARDcore (first of a pair human, second Drosophila, bold NES residues were substituted to alanine in coreNESala; in coreNEScon, underlined conserved non-NES residues were substituted by alanine): 203, […], […]; 20R4, […], […]; 20R7, […]. coreNESmin from Drosophila 20R4 contains ISGLSHLTVGSA (bold residues substituted by alanine in the mutant version). We also fused the putative NES from Drosophila pseudoR20 (FIG. 1, arrowhead) to ARDcore, but this NES candidate ([…]) was non-functional. For the complementation assays in SW480 cells, a central fragment from human APC (codons 1379-2080) was N-terminally tagged with GFP (HC, see above). The above described alanine substitutions of 20R-linked NESs were introduced into HC, and into GFP-E-APC, using the Quik-Change Site-Directed Mutagenesis Kit (Stratagene), HCala1 and HCala2 are partial mutants retaining one and two NESs, respectively (see text) All constructs were verified by sequencing.
Monkey COS cells were grown in DMEM medium (supplemented with 10% fetal calf serum), and transfected with FuGENE™ (Morin, P. J. et al. Science 275, 1787-1790 (1997)) Transfection Reagent (Roche). SW480 and HCT116 cells were grown in Leibovitz's L15 medium (with 10% fetal calf serum), and transfected with Lipofectamine (Life Technologies Inc.). 0.4 or […] DNA was used per transfection of COS or SW480 cells (in 35 mm culture wells), respectively. Transfected cells were harvested for analysis after 24-48 hours. […]
as §1

nuclear β-catenin = experiment: TOPFLASH/FOPFLASH luciferase transcriptional read-out of nuclear β-catenin in SW480 cells; assay type: cell-based; settings: TOPFLASH, versus mock-transfected
Experimental: pTOPFLASH and pFOPFLASH were used for transcriptional read-out assays of nuclear β-catenin in SW480 cells (Korinek, V. et al. Science 275, 1784-1787 (1997)). pRL-CMV served as an internal control, and luciferase assays were performed with the Dual Luciferase™ Reporter Assay System (Promega). Relative luciferase activities (x100) were obtained by dividing TOP- or FOP-FLASH values by pRL-CMV values (FIG. 3). TOP-FLASH values reflect averages of 2-4 independent transfections, their standard deviations are given.

[4] = HC-transfected SW480 cells, LMB 2 hours

| Molecule | effect on nuclear exclusion / distribution of Cterm1 and Cterm2 ([1]; LMB 50 ng/ml 1-2 hours) | effect on nuclear exclusion of coreNES fusions ([1]; LMB 50 ng/ml 1-2 hours) | effect on subcellular distribution of ARDcore and coreNESala mutants ([1]; LMB 50 ng/ml 1-2 hours) | effect on distribution of full-length E-APC ([1]; LMB treatment (not shown)) | effect on localisation of endogenous E-APC [2] | effect on localisation of HC [3, 4] | effect on reduction of nuclear β-catenin by HC [3, 4] | reduction of nuclear β-catenin by transfected construct ([3]; transfected SW480 cells, immunofluorescence) | reduction of luciferase activity (transcriptional activity of nuclear β-catenin) (nuclear β-catenin) |
| --- | --- | --- | --- | --- | --- | --- | --- | --- | --- |
| CCC(=C/[C@H](C)C/C=C/C(C)=C/[C@@H](C)C(=O)[C@@H](C)[C@H](O)[C@@H](C)C/C(C)=C/C(=O)O)/C=C/[C@@H]1OC(=O)C=C[C@@H]1C [LMB, leptomycin B] | blocked; also recorded: even distribution of Cterm1 and 2 throughout cytoplasm and nucleus | abolishes the nuclear exclusion of all coreNES fusions | neither affected | accumulated to some extent in the nucleus | E-APC was found to accumulate in the nuclei; also recorded: endogenous E-APC is retained efficiently in nuclei | caused nuclear retention of HC | attenuated the reduction of nuclear β-catenin by HC |  |  |
| HC: central fragment from human APC (codons 1379-2080) N-terminally tagged with GFP, expressed by transfection (protein, UniProt P25054 1379-2080, looked up, fragment, N-terminal GFP tag, central fragment from human APC (codons 1379-2080) N-terminally tagged with GFP, expressed by transfection) ETPLMFSRCTSVSSLDSFESRSIASSVQSEPCSGMVSGIISPSDLPDSPGQTMPPSRSKTPPPPPQTAQTKREVPKNKAPTAEKRESGPKQAAVNAAVQRVQVLPDADTLLHFATESTPDGFSCSSSLSALSLDEPFIQKDVELRIMPPVQENDNGNETESEQPKESNENQEKEAEKTIDSEKDLLDDSDDDDIEILEECIISAMPTKSSRKAKKPAQTASKLPPPVARKPSQLPVYKLLPSQNRLQPQKHVSFTPGDDMPRVYCVEGTPINFSTATSLSDLTIESPPNELAAGEGVRGGAQSGEFEKRDTIPTEGRSTDEAQGGKTSSVTIPELDDNKAEEGDILAECINSAMPKGKSHKPFRVKKIMDQVQQASASSSAPNKNQLDGKKKKPTSPVKPIPQNTEYRTRVRKNADSKNNLNAERVFSDNKDSKKQNLKNNSKVFNDKLPNNEDRVRGSFAFDSPHHYTPIEGTPYCFSRNDSLSSLDFDDDDVDLSREKAELRKAKENKESEAKVTSHTELTSNQQSANKTQAIAKQPINRGQPKPILQKQSTFPQSSKDIPDRGAATDEKLQNFAIENTPVCFSHNSSLSSLSDIDQENNNKENEPIKETEPPDSQGEPSKPQASGYAPKSFHVEDTPVCFSRNSSLSSLSIDSEDDLLQECISSAMPKKKKPSRLKGDNEKHSPRNMGGILGEDLTLDL |  |  |  |  |  |  |  | strongly reduced nuclear β-catenin | much reduced |
